From patent US20210069189A1, “TREATMENT OF NEURODEGENERATIVE DISEASES” (BENEVOLENTAI BIO LIMITED, priority 2017, published 2021)

How the values were obtained:
ALS = ALS patients; cited from earlier work
[1] = system: murine Hb9-GFP+ motor neurons co-cultured with ALS patient-derived iAstrocytes; experiment: ALS patient iAstrocyte / mouse Hb9-GFP+ motor neuron co-culture, motor neuron survival; type: cell-based, human iAstrocytes; details: iAstrocytes pre-treated 24 hours with various concentrations; viable motor neurons at 72 h as percentage of 24 h, normalised to DMSO control; FIG. 2
Description: ALS iAstrocytes were pre-treated with various concentrations of nilotinib, bafetinib or bosutinib for 24 hours, prior to murine Hb9-GFP motor neuron seeding in co-culture. The number of viable motor neurons was then measured 24 and 72 hours after motor neuron seeding, and the percentage motor neuron survival was calculated, and then normalised to the untreated control of the respective line. *P<0.05, **P<0.01, ***P<0.001. One-way ANOVA with Dunnett's post-hoc test. Data are mean±SD. n=5-6.
This example describes the effect of nilotinib, bafetinib and bosutinib on motor neuron survival in an in vitro model of ALS. This model uses human fibroblast-derived astrocytes and mouse Hb9−GFP+ motor neurons in co-culture (Meyer et al., 2014, PNAS 111, 829-832). The fibroblasts were reprogrammed to induced neural progenitor cells (iNPCs), which were differentiated into Astrocytes. Astrocytes derived from ALS patients cause death of the wild-type Hb9−GFP+ mouse motor neurons in co-culture, a property not seen in astrocytes derived from normal (non-ALS) patients. […]
3,000 human iAstrocytes were seeded per well on fibronectin-coated 384-well plates. […] Hb9− GFP+ motor neurons were imaged after 24 and 72 hours using an INCELL analyser 2000 (GE Healthcare), and the number of viable motor neurons was counted using the INCELL analyser software (GE Healthcare).
The number of viable motor neurons (defined as GFP+ motor neurons with at least 1 axon) 25 that survived after 72 hours in co-culture was calculated as a percentage of the number of viable motor neurons after 24 hours in co-culture. […]

[2] = system: SOD1^G93A mouse model of ALS; details: cited from earlier work
P-glycoprotein (P-gp) = P-glycoprotein (P-gp) (Homo sapiens, UniProt P08183); details: cited from earlier work
P-glycoprotein (P-gp), sequence (P08183 whole entry): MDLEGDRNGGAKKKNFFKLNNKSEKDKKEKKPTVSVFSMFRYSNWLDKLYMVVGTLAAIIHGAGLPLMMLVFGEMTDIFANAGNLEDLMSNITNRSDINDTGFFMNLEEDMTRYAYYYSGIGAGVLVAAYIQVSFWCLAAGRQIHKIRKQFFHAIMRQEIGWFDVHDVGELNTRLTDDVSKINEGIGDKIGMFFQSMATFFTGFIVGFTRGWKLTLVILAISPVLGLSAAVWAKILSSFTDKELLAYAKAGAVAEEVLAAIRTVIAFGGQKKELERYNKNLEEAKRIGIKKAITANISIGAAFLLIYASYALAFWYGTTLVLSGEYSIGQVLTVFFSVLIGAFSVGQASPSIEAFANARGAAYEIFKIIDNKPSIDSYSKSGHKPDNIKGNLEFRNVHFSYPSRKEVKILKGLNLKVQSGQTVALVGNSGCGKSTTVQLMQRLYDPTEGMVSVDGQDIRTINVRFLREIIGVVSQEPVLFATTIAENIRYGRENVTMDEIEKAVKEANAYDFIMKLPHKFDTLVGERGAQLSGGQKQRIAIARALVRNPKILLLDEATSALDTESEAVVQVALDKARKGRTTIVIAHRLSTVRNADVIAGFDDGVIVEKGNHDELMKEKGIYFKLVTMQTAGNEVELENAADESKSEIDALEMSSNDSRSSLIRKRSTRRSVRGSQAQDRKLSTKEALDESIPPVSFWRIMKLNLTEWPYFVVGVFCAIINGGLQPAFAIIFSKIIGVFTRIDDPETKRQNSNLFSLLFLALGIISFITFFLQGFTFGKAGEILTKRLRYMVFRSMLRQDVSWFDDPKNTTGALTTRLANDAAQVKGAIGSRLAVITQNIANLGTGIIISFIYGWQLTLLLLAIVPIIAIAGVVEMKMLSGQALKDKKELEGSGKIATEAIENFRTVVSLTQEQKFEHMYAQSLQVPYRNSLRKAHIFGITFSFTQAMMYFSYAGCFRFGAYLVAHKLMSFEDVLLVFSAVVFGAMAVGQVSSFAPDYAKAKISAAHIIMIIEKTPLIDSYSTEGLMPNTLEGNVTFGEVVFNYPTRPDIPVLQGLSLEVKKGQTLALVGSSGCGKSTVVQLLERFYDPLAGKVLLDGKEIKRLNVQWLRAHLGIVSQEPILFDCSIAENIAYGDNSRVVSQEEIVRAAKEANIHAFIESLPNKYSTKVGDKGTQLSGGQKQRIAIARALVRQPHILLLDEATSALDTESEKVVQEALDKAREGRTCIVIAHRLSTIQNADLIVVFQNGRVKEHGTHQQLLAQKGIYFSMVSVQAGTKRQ

For `Nc1nc2ccc(OC(F)(F)F)cc2s1` [Riluzole], the prolongation of life (ALS) is listed as 2-3 months.
With `C=CC(=O)Nc1cc2c(Nc3ccc(F)c(Cl)c3)ncnc2cc1OCCCN1CCOCC1` [canertinib] the motor neuron survival [1] was “no such increase in survival”.
In the case of `C#Cc1cccc(Nc2ncnc3cc(OCCOC)c(OCCOC)cc23)c1` [erlotinib], the lifespan [2] is listed as “failed to extend lifespan”, the “penetration into the central nervous system” value [2] is listed as “penetrated into the central nervous system” and the “protection of motor synapses” value [2] is listed as “did not protect motor synapses”. The “symptom delay (disease onset and progression)” value [2] was “modest yet statistically significant symptom delay”.
With `Cc1ccc(NC(=O)c2ccc(CN3CCN(C)CC3)cc2)cc1Nc1nc(-c2cccnc2)cs1` [masitinib] the motor neuron survival [1] was “no such increase in survival”.
For `Cc1cn(-c2cc(NC(=O)c3ccc(C)c(Nc4nccc(-c5cccnc5)n4)c3)cc(C(F)(F)F)c2)cn1` [nilotinib], the motor neuron survival [1] is given as “dose-dependent increase in motor neuron survival” and the P-glycoprotein substrate (P-glycoprotein (P-gp)) is given as “P-glycoprotein (P-gp) substrate”.
